Assay results taken from ChEMBL document CHEMBL1201862, “PubChem BioAssay data set” (2004).
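Step 1: Grow cells in 96-well plates. Step 2: Expose to compound for 48 hours at 5 concentrations. Step 3: Interpolate endpoints linearly; if unreached, use highest concentration. GI50 is the concentration that inhibits growth by half.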 The source made the active and inactive calls. No stated cut-off is given here; in the data, active = GI50 up to about 1.1 µM and inactive = higher.

Columns and labels:
Assay in all cases: NCI anticancer screen, dose series, 48 h
[1] = system: 786-0
[2] = system: A498
[3] = system: COLO 205
[4] = system: HCC 2998
[5] = system: HCT-116
[6] = system: HT-29
[7] = system: Hs-578T
[8] = system: LOX IMVI
[9] = system: MDA-MB-231
[10] = system: MDA-MB-435
[11] = system: MOLT-4
[12] = system: NCI-H226
[13] = system: NCI/ADR-RES
[14] = system: OVCAR-3
[15] = system: SF-268
[16] = system: SF-539
[17] = system: SNB-19
[18] = system: SW-620
[19] = system: UACC-257

SMILES | GI50 [1] | GI50 [2] | GI50 [3] | GI50 [4] | GI50 [5] | GI50 [6] | GI50 [7] | GI50 [8] | GI50 [9] | GI50 [10] | GI50 [11] | GI50 [12] | GI50 [13] | GI50 [14] | GI50 [15] | GI50 [16] | GI50 [17] | GI50 [18] | GI50 [19]
O=C(c1cccs1)N1CCc2ccccc2C1 | > 100 µM (inactive) | > 100 µM (inactive) | > 100 µM (inactive) | > 100 µM (inactive) | 38.2 µM (inactive) | > 100 µM (inactive) | 85.5 µM (inactive) | > 100 µM (inactive) | > 100 µM (inactive) | 33.3 µM (inactive) | > 100 µM (inactive) | > 100 µM (inactive) | 42.1 µM (inactive) | > 100 µM (inactive) | > 100 µM (inactive) | > 100 µM (inactive) | > 100 µM (inactive) | > 100 µM (inactive) | > 100 µM (inactive)
O=c1ssc2c1Nc1c(ssc1=O)S2 | 3.87 µM (inactive) | 11.9 µM (inactive) | 18 µM (inactive) | 15.1 µM (inactive) | 15.4 µM (inactive) | 24.3 µM (inactive) | 33.7 µM (inactive) | 5.37 µM (inactive) | 23.4 µM (inactive) | 18.5 µM (inactive) | 9.51 µM (inactive) | 23.4 µM (inactive) | 19.6 µM (inactive) | 17.4 µM (inactive) | 16.2 µM (inactive) | 7.21 µM (inactive) | 17.9 µM (inactive) | 8.61 µM (inactive) | 14.6 µM (inactive)
CC(=O)Oc1ccc2c(c1)c1c(=O)oc(N(C)C)nc1n2Cc1ccccc1 | 50.9 µM (inactive) | > 41.1 µM (inactive) | > 56.4 µM (inactive) | > 100 µM (inactive) | 39.9 µM (inactive) | 64 µM (inactive) | > 53.3 µM (inactive) | 49.7 µM (inactive) | > 75.7 µM (inactive) | 46.2 µM (inactive) | 34 µM (inactive) | > 80.4 µM (inactive) | 34.8 µM (inactive) | 55.1 µM (inactive) | 37.1 µM (inactive) | > 71.9 µM (inactive) | > 100 µM (inactive) | 81.1 µM (inactive) | > 86.5 µM (inactive)
C/C(CC(O)(C(F)(F)F)C(F)(F)F)=N\NC(N)=S | > 10 µM (inactive) | > 10 µM (inactive) | > 10 µM (inactive) | > 10 µM (inactive) | > 10 µM (inactive) | > 10 µM (inactive) | > 10 µM (inactive) | > 10 µM (inactive) | > 10 µM (inactive) | > 10 µM (inactive) | > 10 µM (inactive) | > 10 µM (inactive) | > 10 µM (inactive) | > 10 µM (inactive) | > 10 µM (inactive) | > 10 µM (inactive) | > 10 µM (inactive) | > 10 µM (inactive) | > 10 µM (inactive)
CC(C)(C)OC(=O)N1CC(CCl)c2ccc(O)cc21 (stereo not given) | 3.74 µM (inactive) | 2.06 µM (inactive) | 1.81 µM (inactive) | 0.0223 µM (active) | 2.64 µM (inactive) | 3.15 µM (inactive) | 2.8 µM (inactive) | 1.76 µM (inactive) | 2.53 µM (inactive) | 1.99 µM (inactive) | 1.3 µM (inactive) | 2.06 µM (inactive) | 1.59 µM (inactive) | 2.51 µM (inactive) | 1.58 µM (inactive) | 2.16 µM (inactive) | 3.32 µM (inactive) | 2.59 µM (inactive) | 2.01 µM (inactive)
COCOC1/C=C/CCCCC(=O)C(C)C#CC1 (stereo not given) | 2.09 µM (inactive) | 10.7 µM (inactive) | 2.51 µM (inactive) | 7.89 µM (inactive) | 1.86 µM (inactive) | 3.37 µM (inactive) | 20.3 µM (inactive) | 2.19 µM (inactive) | 4.73 µM (inactive) | 5.52 µM (inactive) | 2.09 µM (inactive) | 17.2 µM (inactive) | 4.18 µM (inactive) | 4.13 µM (inactive) | 15.1 µM (inactive) | 5.7 µM (inactive) | 17.8 µM (inactive) | 1.89 µM (inactive) | 5.65 µM (inactive)
CCOC(=O)NC(OCCN(C)C)(C(F)(F)F)C(F)(F)F | > 100 µM (inactive) | > 100 µM (inactive) | > 100 µM (inactive) | > 100 µM (inactive) | > 100 µM (inactive) | > 100 µM (inactive) | > 100 µM (inactive) | > 100 µM (inactive) | > 100 µM (inactive) | > 100 µM (inactive) | > 100 µM (inactive) | > 100 µM (inactive) | > 100 µM (inactive) | > 100 µM (inactive) | > 100 µM (inactive) | > 100 µM (inactive) | > 100 µM (inactive) | > 100 µM (inactive) | > 100 µM (inactive)
C=CCN1C(=O)/C(=C/c2ccc(OC)cc2)N=C1SC/C=C/C | 34.7 µM (inactive) | 23.9 µM (inactive) | 29.2 µM (inactive) | 63.2 µM (inactive) | 25.4 µM (inactive) | 33.7 µM (inactive) | 50.1 µM (inactive) | 31.6 µM (inactive) | 57.8 µM (inactive) | 33.3 µM (inactive) | 20.3 µM (inactive) | 53.7 µM (inactive) | 39 µM (inactive) | 74.1 µM (inactive) | 53.8 µM (inactive) | > 100 µM (inactive) | 34.4 µM (inactive) | 35.4 µM (inactive) | 36.7 µM (inactive)
CSc1c(C)[n+]([O-])c2cc(Cl)c(Cl)cc2[n+]1[O-] | 17.3 µM (inactive) | 21.6 µM (inactive) | 15.5 µM (inactive) | 18.8 µM (inactive) | 16.4 µM (inactive) | 18.1 µM (inactive) | 24.2 µM (inactive) | 17.9 µM (inactive) | 20.2 µM (inactive) | 18.5 µM (inactive) | 2.38 µM (inactive) | 13.1 µM (inactive) | 17.8 µM (inactive) | 11.5 µM (inactive) | 18.5 µM (inactive) | 44.8 µM (inactive) | > 86.9 µM (inactive) | 16.8 µM (inactive) | 17.9 µM (inactive)
Cc1cccc2c1CC1(Cc3ccccc3C1=O)C2=O (stereo not given) | > 100 µM (inactive) | > 100 µM (inactive) | > 100 µM (inactive) | > 100 µM (inactive) | > 100 µM (inactive) | > 100 µM (inactive) | 26.2 µM (inactive) | > 100 µM (inactive) | > 100 µM (inactive) | > 100 µM (inactive) | > 100 µM (inactive) | > 100 µM (inactive) | > 100 µM (inactive) | > 100 µM (inactive) | 87.1 µM (inactive) | > 100 µM (inactive) | > 100 µM (inactive) | > 100 µM (inactive) | > 100 µM (inactive)
S=C(N/N=C(/c1ccccc1)c1ccccn1)Nc1ccccc1Cl | < 0.018 µM (active) | 1.13 µM (inactive) | < 0.01 µM (active) | 0.673 µM (active) | < 0.01 µM (active) | < 0.0227 µM (active) | 2.49 µM (inactive) | 0.0418 µM (active) | < 0.01 µM (active) | 0.265 µM (active) | < 0.01 µM (active) | 0.0993 µM (active) | < 0.01 µM (active) | < 0.0103 µM (active) | 0.179 µM (active) | 1.11 µM (active) | 4.95 µM (inactive) | < 0.01 µM (active) | < 0.01 µM (active)
CCNc1cc2c3c(c1)CCN3CCC2 | > 10 µM (inactive) | > 10 µM (inactive) | > 10 µM (inactive) | > 10 µM (inactive) | > 10 µM (inactive) | > 10 µM (inactive) | > 10 µM (inactive) | > 10 µM (inactive) | > 10 µM (inactive) | > 10 µM (inactive) | > 10 µM (inactive) | > 10 µM (inactive) | > 10 µM (inactive) | > 10 µM (inactive) | > 10 µM (inactive) | > 10 µM (inactive) | > 10 µM (inactive) | 6.3 µM (inactive) | > 10 µM (inactive)
C=C(C(=O)O[C@H]1C(=O)C2=C(C)CCC3C(=C)C(=O)O[C@@H]3C2[C@]1(C)O)C1CC[C@]2(C)CCCC(=C)[C@H]2C1 (stereo not given in full) | 1.88 µM (inactive) | 10.7 µM (inactive) | 8.77 µM (inactive) | 1.91 µM (inactive) | 3.28 µM (inactive) | 4.24 µM (inactive) | 4.61 µM (inactive) | 3.18 µM (inactive) | 5.78 µM (inactive) | 3.35 µM (inactive) | 2.21 µM (inactive) | 17.1 µM (inactive) | 7.38 µM (inactive) | 4.75 µM (inactive) | 5.6 µM (inactive) | 4.1 µM (inactive) | 13.1 µM (inactive) | 7.46 µM (inactive) | 4.25 µM (inactive)
COc1ccc(/C(=N/O)c2ccccc2-c2nc3ccccc3c(=O)n2-c2ccc(S(=O)(=O)Nc3ncccn3)cc2)cc1C | > 10 µM (inactive) | 20.4 µM (inactive) | 18.9 µM (inactive) | 10.2 µM (inactive) | 12.7 µM (inactive) | > 10 µM (inactive) | 29.4 µM (inactive) | > 10 µM (inactive) | 18.4 µM (inactive) | 14.9 µM (inactive) | 12.2 µM (inactive) | > 10 µM (inactive) | 11.6 µM (inactive) | 15.8 µM (inactive) | 16.7 µM (inactive) | 13.2 µM (inactive) | 20.8 µM (inactive) | 18 µM (inactive) | 17.1 µM (inactive)
O=[N+]([O-])c1ccc(Oc2c(Cl)cc(S(=O)(=O)N/C(=N\O)Nc3ccc(Cl)cc3)cc2Cl)cc1 | 11.2 µM (inactive) | 10.4 µM (inactive) | 15.1 µM (inactive) | 4.1 µM (inactive) | 10.5 µM (inactive) | 14.4 µM (inactive) | 14.6 µM (inactive) | 11.1 µM (inactive) | 11 µM (inactive) | 13.9 µM (inactive) | 6.11 µM (inactive) | 14 µM (inactive) | 12.6 µM (inactive) | 5.87 µM (inactive) | 12.5 µM (inactive) | 13.5 µM (inactive) | 15.2 µM (inactive) | 13.1 µM (inactive) | 10.6 µM (inactive)
